Data published in patent US12630565B2, “DNA-dependent protein kinase inhibitor” (DIZAL (JIANGSU) PHARMACEUTICAL CO., LTD., priority 2019, dated 2026).

Columns and labels:
[1] = Brain-blood-barrier penetration assay (short oral absorption model, Kp,uu); assay type: in vivo; conditions: male Han Wistar rats, oral 10 mg/kg in 1% methylcellulose, AUC(brain)/AUC(plasma)×(fu,brain/fu.plasma); for Kp uu: male, Han Wistar, rat, brain and plasma, po, 10 mg/kg
Method: It is believed that Kp,uu, the relationship between concentrations of unbound drug in brain and in plasma, is the key to prediction of CNS action and should be the main parameter measured and optimized for in drug discovery (Di L et al., Journal of Medicinal Chemistry [2013], 56: 2-12).
In vitro plasma and brain binding assay was carried out by using equilibrium dialysis method with semi-permeable membrane. Plasma and diluted brain homogenate (1:4 with DPBS pH7.4) were spiked with 5 μM test compound (in triplicate) and dialyzed against equal volume of 150 μL 100 mM PBS buffer (pH7.4) at 37° C. for 18 hours in a slowly rotated plate. At the end of incubation, a 50 μL aliquot from the receiver side and a 5 μL from the donor chamber were taken. The 5 μL sample was further diluted with 45 μL of blank plasma or brain homogenate. Paired samples were matrix-matched with either buffer or blank plasma/brain homogenate and mixed for 2 min, and then precipitated with 150 μL cold acetonitrile with 100 ng/mL tolbutamide as internal standard. After centrifuging at 4000 rpm for 20 min, supernatant was diluted with 0.1% formic acid aqueous solution and analyzed for LC/MS/MS (API 4000, Applied Biosystems, Foster City). Unbound fraction (fu) of test compound in the brain homogenate and diluted plasma were calculated by the ratio of the buffer side response to the brain homogenate/plasma side response, and unbound fraction (fu,pl and fu,br) of test compound in non-diluted plasma and tissue were calculated from measured fu in homogenate and plasma with the following equation: fu,bl (fu,br)=(1/D)/[(1/fu−1)+1/D)]. D is dilution factor.
A Short oral absorption (SOA) model is an in-vivo screening model to identify brain penetration of a compound. Six male Han Wistar rats purchased from Beijing Vital River were orally dosed with the compound at 10 mg/kg in 1% methylcellulose At 0.5, 1, 2, 4, 7 and 16 hour post-dose, cerebral spinal fluid (CSF) was collected from cisterna magna. Plasma samples will be processed for plasma by centrifugation at approximately 4° C., 3,000 g within half an hour of collection. Plasma samples will be removed to a labeled tube and stored at −80 degree until analysis. Brain tissue was harvested and homogenized in 3× volume of 100 mM phosphate buffered saline (pH7.4). All samples were stored at ˜−70° C. prior to LC/MS/MS analysis.
Standards were prepared by spiking blank plasma, brain homogenate and artificial CSF covering 0.5 to 500 ng/mL. Homogenized brain tissue along with plasma samples were precipitated by adding 3-fold volume of cold acetonitrile containing internal standard (40 ng/mL Dexamethasone and 40 ng/mL Diclofenac), and 10 μL of CSF samples were precipitated with 100 μL of cold acetonitrile containing internal standard. After 2 min vortex and 5 min centrifugation at 14,000 rpm, supernatant was analyzed by LC/MS/MS (API 4000, Applied Biosystems, Foster City). Two sets of standard curves were run at the beginning and end of each batch from plasma sample analysis. For brain and CSF samples, one standard curve was analyzed along with test samples.
Total brain levels, expressed as brain/plasma ratio (Kp) were measured by AUCbrain/AUCplasma in rodents after oral administration. Free fraction of test compound in biological matrix was determined by in vitro plasma and brain binding assay. Kp,uu was calculated by the following equation: Kp,uu=AUC (brain)/AUC (plasma)×(fu,brain/fu.plasma).

[2] = system: MDCKII-MDR1-BCRP cell monolayers; test: MDCKII-MDR1-BCRP efflux assay; assay type: in vitro ADME; conditions: 5 μM compound, 120 min, HBSS pH 7.4
How it was run: (§1)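 Bidirectional (A-B, B-A) transport of 5 μM compound across MDCKII-MDR1-BCRP monolayers in HBSS, 25 mM HEPES pH 7.4, ~37° C. for 120 min, triplicate; donor and receiver concentrations measured, monolayer integrity checked with Lucifer yellow. Papp and efflux ratio calculated.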

Rat hepatocyte = test: Metabolic stability assay (rat hepatocyte Clint); assay type: in vitro ADME; conditions: 1 μM compound, cryopreserved hepatocytes 1 million cells per mL
How it was run: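 Compound at 1 μM incubated with cryopreserved rat hepatocytes, 1 million cells/mL, sampled 0–120 min with acetonitrile quench and LC-MS/MS quantitation. CLint (μL/min/E6) derived from elimination rate constant and half-life of parent disappearance, scaled by cell concentration.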

[3] = Metabolic stability assay (human microsomal Clint); assay type: in vitro ADME; conditions: 1 mg/mL microsomes, 1 mM NADPH, 37° C.; for Human liver microsomal CLint: 1 μM compound; for microsomal CLint at 1 μM: human, pooled human liver microsomes, pH 7.4, 1 μM compound
How it was run: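 Compound (1 μM) incubated at 37 °C with pooled human liver microsomes (1 mg/mL) and 1 mM NADPH in 100 mM phosphate, pH 7.4. Samples quenched in acetonitrile at 0–30 min and analysed by LC-MS/MS for parent loss. CLint reported in μl/min/mg.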

[4] = molecular target: Full length human DNAPK protein (Homo sapiens, UniProt P78527); test: DNA-PK enzymatic assay (TR-FRET); assay type: biochemical; conditions: 10 μM ATP, 1.6 μM peptide substrate
MDR1, BCRP = test: MDCKII-MDR1-BCRP efflux assay; assay type: in vitro ADME; conditions: dog, pH 7.4, 5 μM compound, HBSS pH 7.4, read-out: MDCK-Mdr1-BCRP efflux ratio
How it was run: as §1

SMILES | Kp uu [1] | MDCK-Mdr1-BCRP efflux ratio [2] | Rat hepatocyte CLint (μl/min/10^−6 cells) (Rat hepatocyte) | Human liver microsomal CLint [3] | IC50 [4] | Kp, uu (brain) [1] | efflux ratio at 120 min, 5 μM (MDR1, BCRP) | microsomal CLint at 1 μM [3]
Cc1cc2ncnn2cc1Nc1ncc2c(C)nn(C3CCCOCC3)c2n1 (single isomer, unassigned) [Example 34, 3-methyl-N-(7-methyl-[1,2,4]triazolo[1,5-a]pyridin-6-yl)-1-(oxepan-4-yl)-1H-pyrazolo[3,4-d]pyrimidin-6-amine] | 0.24 | 3.5 | 12.7 μl/min/10^−6 cells | 31.4 µL/min/mg | 1.2 nM | – | – | –
COC1CCC(n2nc(C)c3cnc(Nc4cn5ncnc5cc4C)nc32)C1 (single isomer, unassigned) [Example 110, 1-(3-methoxycyclopentyl)-3-methyl-N-(7-methyl-[1,2,4]triazolo[1,5-a]pyridin-6-yl)-1H-pyrazolo[3,4-d]pyrimidin-6-amine] | 0.25 | 1.7 | 17.4 μl/min/10^−6 cells | 64.8 µL/min/mg | 1.8 nM | – | – | –
COC1CCC(n2nc(C)c3cnc(Nc4cn5ncnc5cc4C)nc32)C1 (single isomer, unassigned) [Example 111, 1-(3-methoxycyclopentyl)-3-methyl-N-(7-methyl-[1,2,4]triazolo[1,5-a]pyridin-6-yl)-1H-pyrazolo[3,4-d]pyrimidin-6-amine] | – | 1.8 | 17.0 μl/min/10^−6 cells | 68.5 µL/min/mg | 1.1 nM | 0.36 | – | –
Cc1cc2ncnn2cc1Nc1ncc2c(n1)c(C1CCOCC1)nn2C [Example 1, 1-methyl-N-(7-methyl-[1,2,4]triazolo[1,5-a]pyridin-6-yl)-3-(tetrahydro-2H-pyran-4-yl)-1H-pyrazolo[4,3-d]pyrimidin-5-amine] | 0.17 | – | 5.4 μl/min/10^−6 cells | – | 0.8 nM | – | 5.9 | 19.8 µL/min/mg
Cc1cc2nccn2cc1Nc1ncc2c(n1)c(C1CCOCC1)nn2C [Example 2, 1-methyl-N-(7-methylimidazo[1,2-a]pyridin-6-yl)-3-(tetrahydro-2H-pyran-4-yl)-1H-pyrazolo[4,3-d]pyrimidin-5-amine] | 0.14 | – | 3.0 μl/min/10^−6 cells | – | 1.4 nM | – | 3.3 | 12.7 µL/min/mg
CO[C@H]1CC[C@H](c2nn(C)c3cnc(Nc4cn5ncnc5cc4C)nc32)CC1 [Example 7, 3-((1r,4r)-4-methoxycyclohexyl)-1-methyl-N-(7-methyl-[1,2,4]triazolo[1,5-a]pyridin-6-yl)-1H-pyrazolo[4,3-d]pyrimidin-5-amine] | 0.1 | – | 7.5 μl/min/10^−6 cells | – | 0.8 nM | – | 2.3 | 75.1 µL/min/mg
Cc1cc2ncnn2cc1Nc1ncc2c(C)nn(C3CCC(F)(F)CC3)c2n1 [Example 21, 1-(4,4-difluorocyclohexyl)-3-methyl-N-(7-methyl-[1,2,4]triazolo[1,5-a]pyridin-6-yl)-1H-pyrazolo[3,4-d]pyrimidin-6-amine] | 0.08 | – | 10.0 μl/min/10^−6 cells | – | 1.4 nM | – | 1.3 | 102 µL/min/mg
CO[C@H]1CC[C@H](n2nc(C)c3cnc(Nc4cn5ncnc5cc4C)nc32)CC1 [Example 24, 1-((1r,4r)-4-methoxycyclohexyl)-3-methyl-N-(7-methyl-[1,2,4]triazolo[1,5-a]pyridin-6-yl)-1H-pyrazolo[3,4-d]pyrimidin-6-amine] | 0.1 | – | 5.5 μl/min/10^−6 cells | – | 0.4 nM | – | 1.4 | 72.3 µL/min/mg
Cc1cc2ncnn2cc1Nc1ncc2c(C)nn([C@H]3C[C@H]4CC[C@@H](C3)O4)c2n1 [Example 106, 1-((1R,3r,5S)-8-oxabicyclo[3.2.1]octan-3-yl)-3-methyl-N-(7-methyl-[1,2,4]triazolo[1,5-a]pyridin-6-yl)-1H-pyrazolo[3,4-d]pyrimidin-6-amine] | 0.19 | – | 17.6 μl/min/10^−6 cells | – | 0.9 nM | – | 2.1 | 68.9 µL/min/mg
Cc1cc2ncnn2cc1Nc1ncc2c(C)nn([C@@H]3C[C@H]4CC[C@@H](C3)O4)c2n1 [Example 107, 1-((1R,3s,5S)-8-oxabicyclo[3.2.1]octan-3-yl)-3-methyl-N-(7-methyl-[1,2,4]triazolo[1,5-a]pyridin-6-yl)-1H-pyrazolo[3,4-d]pyrimidin-6-amine] | 0.3 | – | 4.5 μl/min/10^−6 cells | – | 1.3 nM | – | 2.7 | 13.9 µL/min/mg
